The values below come from patent US8927559B2, “Quinazolinone-type compounds as CRTH2 antagonists” (Merck Sharp & Dohme Corp., priority 2010, dated 2015).

Several values for one entry are separate records, joined by “and”; a condition that tells them apart may be missing. Equal values may be shown once. Read-outs that look alike come from different tables or passages of the source.

This experiment concerns the target T1, CRTH2 receptor (hCRTH2) (Homo sapiens, UniProt Q9Y5Y4).
T1 construct: expressed in transfected cells; host or cells: HEK cells (HEK-hCRTH2 cell line), membranes
T1 sequence (Q9Y5Y4 1-395): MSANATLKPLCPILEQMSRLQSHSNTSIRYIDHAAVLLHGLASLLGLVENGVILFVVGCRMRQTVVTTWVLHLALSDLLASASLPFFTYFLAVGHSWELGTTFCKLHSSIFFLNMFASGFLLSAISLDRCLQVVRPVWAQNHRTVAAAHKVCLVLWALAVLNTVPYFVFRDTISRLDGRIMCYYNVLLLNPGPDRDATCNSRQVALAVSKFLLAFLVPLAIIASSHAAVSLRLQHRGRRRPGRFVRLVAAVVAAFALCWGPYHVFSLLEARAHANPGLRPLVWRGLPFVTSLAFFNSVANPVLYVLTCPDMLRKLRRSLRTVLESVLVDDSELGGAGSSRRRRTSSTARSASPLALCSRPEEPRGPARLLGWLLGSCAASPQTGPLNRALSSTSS
In words: Radioligand binding assay ([3H]PGD2 competition, membranes of HEK-hCRTH2 cell line). Particulars: 3.0 nM [3H]PGD2, HEK-hCRTH2 membranes, 60 min, room temperature. In outline: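 Membranes (8-20 μg protein) from HEK cells expressing human CRTH2 were incubated with [3H]PGD2 and competitor in 1% DMSO for 60 min at room temperature. Non-specific binding was defined with excess PGD2. Bound radioactivity was separated by filtration and counted by melt-on scintillation.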

Broadly, the Ki is a measure of affinity in units of concentration, obtained from inhibition or displacement. Take `CC(CCCc1nc2cc(C3=NOC(C)(c4nc5ccccc5o4)C3)ccc2c(=O)n1-c1ccc(F)cc1)C(=O)O` (stereo not drawn) [Example 108]: the inhibition constant (Ki) (read-out: Ki) was at most 10 nM.

Take `Cc1cc(-c2ccc3c(=O)n(-c4ccc(C(F)(F)F)cc4)c(CCCCC(=O)O)nc3c2)no1` [Example 13, 5-{7-(5-Methylisoxazol-3-yl)-4-oxo-3-[4-(trifluoromethyl)phenyl]-3,4-dihydroquinazolin-2-yl}pentanoic acid]: the Ki (read-out: Ki) is at most 10 nM.

As to `O=C(O)CCCCc1nc2cc(-c3cn(Cc4ccc(F)cc4)nn3)ccc2c(=O)n1-c1ccc(F)cc1` [Example 19, 5-{7-[1-(4-fluorobenzyl)-1H-1,2,3-triazol-4-yl]-3-(4-fluorophenyl)-4-oxo-3,4-dihydroquinazolin-2-yl}pentanoic acid], for the setting “read-out: Ki”, the Ki was at most 10 nM.

Take `C[C@@]1(C(=O)Nc2cc(F)ccc2O)CC(c2ccc3c(=O)n(-c4ccc(F)cc4)c(CCCCC(=O)O)nc3c2)=NO1` [Example 190]: under “read-out: Ki”, the Ki is 50 to 100 nM and 96.2 nM.

In the case of `O=C(O)CCCCc1nc2cc(-c3cc(-c4ccccc4)no3)ccc2c(=O)n1-c1ccc(F)cc1` [Example 32], the Ki (read-out: Ki) is 10 to 50 nM and 22.1 nM.

Consider `O=C(O)CCCCc1nc2cc(-n3cc(-c4ccccc4)nn3)ccc2c(=O)n1-c1ccc(F)cc1` [Example 21D], for which the Ki (read-out: Ki) was at most 10 nM.

Consider `CC1(c2ccccc2)CC(c2ccc3c(=O)n(-c4ccc(Cl)cc4)c(CCCCC(=O)O)nc3c2)=NO1` (stereo not drawn) [Example 15i], for which, where the note is “read-out: Ki”, the Ki is at most 10 nM.

On to `O=C(O)CCCCc1nc2cc(C3=NOC4(CC[C@H](c5ccccc5)C4)C3)ccc2c(=O)n1-c1ccc(F)cc1` (single isomer, unassigned) [Example 139], for which, under “read-out: Ki”, the Ki is at most 10 nM.

In the case of `O=C(O)CCCCc1nc2cc(-c3cc(-c4nc5ccccc5o4)on3)ccc2c(=O)n1-c1ccc(F)cc1` [Example 29], for the setting “read-out: Ki”, the Ki was at most 10 nM.

Regarding `CO[C@@H](c1ccccc1)c1cc(-c2ccc3c(=O)n(-c4ccc(F)cc4)c(CCCCC(=O)O)nc3c2)no1` [Example 147], the Ki (read-out: Ki) is at most 10 nM.

For the molecule `C[C@@]1(C(=O)NCc2ccc(C#N)cc2)CC(c2ccc3c(=O)n(-c4ccc(F)cc4)c(CCCCC(=O)O)nc3c2)=NO1` [Example 237], the inhibitory constant (Ki) (read-out: Ki) lay in the range of 10 to 50 nM.

For the molecule `O=C(O)CCCCc1nc2cc(C3=NOC(c4ccncc4)C3)ccc2c(=O)n1-c1ccc(F)cc1` (stereo not drawn) [Example 15H], where the note is “read-out: Ki”, the Ki lay in the range of 10 to 50 nM.

On to `CC1(c2nc3cc(F)cc(F)c3[nH]2)CC(c2ccc3c(=O)n(-c4ccc(F)cc4)c(CCCCC(=O)O)nc3c2)=NO1` (stereo not drawn) [Example 198], for which the Ki (read-out: Ki) is at most 10 nM.

Regarding `CC1(c2nc3ccc(F)cc3[nH]2)CC(c2ccc3c(=O)n(-c4ccc(F)cc4)c(CCCCC(=O)O)nc3c2)=NO1` (stereo not drawn) [Example 174], the Ki (read-out: Ki) is at most 10 nM.

Take `CC(C)(C)c1ccc(S(=O)(=O)NCc2cc(-c3ccc4c(=O)n(-c5ccc(F)cc5)c(CCCCC(=O)O)nc4c3)no2)cc1` [Example 24L]: the inhibition constant (Ki) (read-out: Ki) was 10 to 50 nM.

`C[C@@]1(C(=O)N2CC[C@H](c3ccccc3)C2)CC(c2ccc3c(=O)n(-c4ccc(F)cc4)c(CCCCC(=O)O)nc3c2)=NO1` [Example 239]: the Ki (read-out: Ki) was 10 to 50 nM.

Take `CC1(c2nc3ccc(Cl)cc3[nH]2)CC(c2ccc3c(=O)n(-c4ccc(F)cc4)c(CCCCC(=O)O)nc3c2)=NO1` (stereo not drawn) [Example 175]: the Ki (read-out: Ki) was at most 10 nM.

As for `C[C@@]1([C@@H](O)c2cccc(C#N)c2)CC(c2ccc3c(=O)n(-c4ccc(F)cc4)c(CCCCC(=O)O)nc3c2)=NO1` [Example 137], under “read-out: Ki”, the Ki is at most 10 nM.

Take `CC(c1ccc(F)cc1)c1nc(-c2ccc3c(=O)n(-c4ccc(F)cc4)c(CCCCC(=O)O)nc3c2)no1` (stereo not drawn) [Example 249]: the Ki (read-out: Ki) fell in the range of 10 to 50 nM.

For the molecule `O=C(O)CCCCc1nc2cc(C3=NOC(c4nc5ccccc5o4)C3)ccc2c(=O)n1-c1ccc(F)cc1` (stereo not drawn) [Example 28, 5-(7-(5-(benzo[d]oxazol-2-yl)-4,5-dihydroisoxazol-3-yl)-3-(4-fluorophenyl)-4-oxo-3,4-dihydroquinazolin-2-yl)pentanoic acid], where the note is “read-out: Ki”, the Ki was at most 10 nM.

Take `C[C@]1(c2nc3ccccc3s2)CC(c2ccc3c(=O)n(-c4ccc(F)cc4)c(CCCCC(=O)O)nc3c2)=NO1` [Example 181]: the Ki (Ki) was at most 10 nM.

With `O=C(O)CCCCc1nc2cc(-c3cc(CS(=O)(=O)c4ccccn4)on3)ccc2c(=O)n1-c1ccc(F)cc1` [Example 39I], the Ki (read-out: Ki) was 10 to 50 nM.

Regarding `O=C(O)CCCCc1nc2cc(-c3cc(COCc4cc(F)cc(F)c4)on3)ccc2c(=O)n1-c1ccc(F)cc1` [Example 269], the Ki (read-out: Ki) was at most 10 nM.

`O=C(O)CCCCc1nc2cc(-c3cc(CNS(=O)(=O)c4ccc(F)cc4)on3)ccc2c(=O)n1-c1ccc(F)cc1` [Example 24H]: the Ki (read-out: Ki) is at most 10 nM.

For the molecule `CC(CCCc1nc2cc(C3=NOC(C)([C@H](O)c4ccccc4)C3)ccc2c(=O)n1-c1ccc(F)cc1)C(=O)O` (stereo partly drawn) [Example 109], the Ki (read-out: Ki) fell in the range of 10 to 50 nM.

Consider `O=C(O)CCCCc1nc2cc(-c3cc(Cc4ccc5ccccc5c4)on3)ccc2c(=O)n1-c1ccc(F)cc1` [Example 25J], for which, under “read-out: Ki”, the Ki is at most 10 nM.

Consider `O=C(O)CCCCc1nc2cc(-c3cc(CNS(=O)(=O)c4ccc(OC(F)(F)F)cc4)on3)ccc2c(=O)n1-c1ccc(F)cc1` [Example 24i], for which the Ki (read-out: Ki) is at most 10 nM.
